Data from article PMC10673058, “In Silico and In Vitro Search for Dual Inhibitors of the Trypanosoma brucei and Leishmania major Pteridine Reductase 1 and Dihydrofolate Reductase” (Molecules, 2023).
pEC50, pIC50: −log10 of the molar value. Like-named read-outs stand apart in the source and are kept apart here. Values belong to the compound of their own block, whether it stands above or below them.

Legend:
Type in all cases: biochemical
LmPTR1 = target: T1, LmPTR1 (Leishmania major, UniProt Q01782); assay: Spectrophotometric enzyme inhibition assay, recombinant LmPTR1
T1 construct: His6 (N); made in house; host or cells: E. coli BL21 (DE3), vector pET 15b::LmPTR1His (strain from the group of M. Paola Costi, Modena)
T1 sequence (Q01782 1-288): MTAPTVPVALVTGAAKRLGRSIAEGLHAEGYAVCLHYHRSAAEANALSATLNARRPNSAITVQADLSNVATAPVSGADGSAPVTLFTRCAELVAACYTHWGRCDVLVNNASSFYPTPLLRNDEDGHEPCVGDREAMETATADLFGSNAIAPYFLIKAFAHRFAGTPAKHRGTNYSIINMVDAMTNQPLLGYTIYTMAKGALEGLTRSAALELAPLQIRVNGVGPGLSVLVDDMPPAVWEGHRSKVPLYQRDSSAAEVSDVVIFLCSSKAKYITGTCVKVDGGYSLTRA
Method: (§1) Based on the in vitro assays against TbPTR1 and LmPTR1 performed in the previous works of our group, as well as the in silico results obtained from the current study, a total of 47 natural products were tested against the target enzymes. […] The concentration-effect curves for the IC50 and EC50 values that were obtained in the present study are depicted in Supplementary Materials Figures S21–S42.
(§2) The used TbPTR1 concentration was 3.23 mg/mL, with a specific activity of 0.03 U/mg. The measurements were carried out using the enzyme’s individual saturating concentrations for folic acid (8 μM) and NADPH (150 μM) in Buffer A (50 mM Tris/HCl (pH 7.6), 250 mM NaCl). For LmPTR1, the protein concentration was 5.02 mg/mL and the specific activity was calculated to be 0.29 U/mg. Buffer B (50 mM NaH2PO4 (pH 6.0), 100 mM NaCl) was used for all LmPTR1 measurements and the saturating concentrations amounted to 50 μM of folic acid and 200 μM of NADPH. The saturating conditions of the PTR1 enzymes were determined using the diagrams depicted in Figures S16 and S18 in the Supplementary Materials.
(§3) The inhibitory effect of the selected natural products was investigated by testing the DMSO solution of each compound at a constant concentration of 100 μM for TbPTR1 and 50 μM for LmPTR1, TbDHFR, and LmDHFR, as well as hDHFR. The concentrations of the cofactor and substrates were set at the previously determined saturating conditions (Section 4.2.5). Each test compound was incubated for 20 min with the respective enzyme and NADPH to ensure a sufficient interaction time before the reaction was induced by the addition of the substrate. The enzymatic activity was determined in duplicates and correlated with a reference that contained just DMSO, instead of an inhibitor. The enzymatic activity of the reference was normalized to 100%.
(§4) The half-maximal inhibitory concentration (IC50) of the natural products was determined in triplicate, using at least five different inhibitor concentrations against a reference containing no inhibitor. The enzymatic activity was documented and analyzed and the IC50 value was determined by nonlinear regression using GraphPad Prism 9 (GraphPad Software Inc., La Jolla, CA, USA).

TbDHFR = target: T2, TbDHFR (Trypanosoma brucei brucei, UniProt Q27783); assay: Spectrophotometric enzyme inhibition assay, recombinant TbDHFR; conditions: read-out: IC50 TbDHFR
T2 construct: pET 11D::TbDHFRHis vector design for the recombinant overexpression of TbDHFR in E. coli; His; made in house; host or cells: E. coli BL21(DE3), vector pET 11D::TbDHFRHis
Method: Based on the in vitro assays against TbPTR1 and LmPTR1 performed in the previous works of our group, as well as the in silico results obtained from the current study, a total of 47 natural products were tested against the target enzymes.
The saturating conditions for TbDHFR and LmDHFR were determined using the diagrams depicted in Figures S17 and S19 in the Supplementary Materials.
as §3, §4

TbPTR1 [1] = target: T3, TbPTR1 (Trypanosoma brucei brucei, UniProt O76290); assay: Dilution assay for reversible/irreversible inhibition of TbPTR1; conditions: inhibitor concentration near IC50
T3 construct: His6 (N); made in house; host or cells: E. coli BL21 (DE3), vector pET 15b::TbPTR1His (strain from the group of M. Paola Costi, Modena)
T3 sequence (O76290 1-268): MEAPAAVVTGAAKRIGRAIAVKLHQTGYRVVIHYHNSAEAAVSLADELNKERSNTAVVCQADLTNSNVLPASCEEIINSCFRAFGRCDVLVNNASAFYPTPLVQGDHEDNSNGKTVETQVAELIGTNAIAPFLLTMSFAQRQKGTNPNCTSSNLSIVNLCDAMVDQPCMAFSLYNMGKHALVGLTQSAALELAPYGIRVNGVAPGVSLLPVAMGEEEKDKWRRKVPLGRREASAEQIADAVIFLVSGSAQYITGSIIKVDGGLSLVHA
From the text: The catalytic center of TbPTR1 contains a cysteine residue (TbCys168) in close proximity to the substrate/inhibitor binding site. In our previous publication, we mentioned the possibility that Sesquiterpene Lactones 1 and 2 might interact as Michael acceptors with TbCys168 by covalent bond formation with its thiol group. Therefore, we have now subjected a selection of natural product inhibitors containing Michael acceptors (1, 2, 5, 17) to initial testing for irreversible inhibition, according to the dilution method described by Bisswanger (see Section 4.2.9).
In this method, the enzyme activity of the respective enzyme-inhibitor mixture is measured before and after a defined dilution (in this study, 1:2). In the absence of an inhibitor, dilution decreases the enzyme activity proportionally to the dilution factor. […] A reversible inhibitor, on the other hand, will dissociate upon dilution, resulting in a weaker decrease in activity than what corresponds to the dilution effect. In the presence of Inhibitors 1 and 2, the decrease in TbPTR1 activity upon the 1:2 dilution was almost proportional to the dilution factor, i.e., only 9.5% and 6.8% activity, respectively, were recovered compared to the reference. This would indeed support an irreversible mechanism of inhibition. […] However, further investigations on these compounds’ mechanisms of inhibition are under way.
To assign an either reversible or irreversible inhibition mechanism to selected compounds, the enzymatic activity of an enzyme-inhibitor mixture was determined before and after a defined dilution, using the reaction conditions described in Section 4.2.5 [16].
Two equivalent solutions with the respective enzyme and inhibitor combination were prepared, one of them being diluted with buffer in a 1:2 ratio shortly before the reaction was started by adding the substrate. The respective inhibitor concentration was set near the IC50 value. The substrate and cofactor concentrations were kept constant in both reaction mixtures. All measurements were carried out in duplicates against a reference containing DMSO instead of the inhibitor. […] If a reversible inhibitor was present, a higher degree of activity recovery (>>10%) could be observed than what corresponds to the dilution factor due to the partial dissociation of the inhibitor from the enzyme upon dilution. The percentual changes in the enzymatic activity of the undiluted and diluted test solution were compared and evaluated to decide the mechanism of inhibition.

hDHFR = target: T4, hDHFR (Homo sapiens, UniProt P00374); assay: Spectrophotometric enzyme inhibition assay, recombinant hDHFR (selectivity)
T4 construct: His; host or cells: E. coli BL21 (DE3), vector pET 15b::hDHFRHis
T4 sequence (P00374 1-187): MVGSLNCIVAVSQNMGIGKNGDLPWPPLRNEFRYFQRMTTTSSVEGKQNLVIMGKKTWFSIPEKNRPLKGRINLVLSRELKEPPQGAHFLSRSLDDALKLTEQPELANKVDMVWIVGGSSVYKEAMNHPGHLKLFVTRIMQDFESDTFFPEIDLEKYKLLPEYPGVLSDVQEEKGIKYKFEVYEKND
Method: For 15 compounds, there was enough substance available to be tested in selectivity studies against hDHFR.
The used hDHFR concentration was 0.64 mg/mL, with a specific activity of 0.62 U/mg. All measurements were carried out using the saturating concentrations for dihydrofolate (100 μM) and NADPH (50 μM) in Buffer C (50 mM Tris/HCl (pH 7.6), 250 mM NaCl, 10 mM BME). The saturating conditions for hDHFR were determined using the diagrams depicted in Figure S20 in the Supplementary Materials.
as §3, §4

TbPTR1 [2] = target: T3, TbPTR1; assay: Spectrophotometric enzyme inhibition assay, recombinant TbPTR1; conditions: read-out: IC50 TbPTR1
Method: as §1, §2, §3, §4

LmDHFR = target: T5, LmDHFR (Leishmania major, UniProt P07382); assay: Spectrophotometric enzyme inhibition assay, recombinant LmDHFR; conditions: read-out: EC50 LmDHFR (footnote a)
T5 construct: The DNA fragment encoding LmDHFR was amplified by Phusion DNA polymerase; His6 (N); made in house; host or cells: E. coli BL21(DE3), vector pET 11D::LmDHFRHis
T5 sequence (P07382 26-229 limits assumed): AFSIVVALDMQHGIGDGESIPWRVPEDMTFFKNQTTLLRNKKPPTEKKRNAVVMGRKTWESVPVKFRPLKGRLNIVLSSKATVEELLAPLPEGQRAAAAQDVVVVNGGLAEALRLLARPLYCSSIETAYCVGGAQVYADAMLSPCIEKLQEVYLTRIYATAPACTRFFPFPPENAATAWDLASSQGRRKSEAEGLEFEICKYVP
Method: as §1
The TbDHFR concentration was measured to be 0.04 mg/mL and a specific activity of 38.1 U/mg was calculated. The concentration of LmDHFR was 0.05 mg/mL with a specific activity of 56.2 U/mg. All measurements were carried out using the saturating concentrations for dihydrofolate (50 μM) and NADPH (150 μM) in Buffer C (50 mM Tris/HCl (pH 7.6), 250 mM NaCl, 10 mM BME). The saturating conditions for TbDHFR and LmDHFR were determined using the diagrams depicted in Figures S17 and S19 in the Supplementary Materials.
as §3, §4

T2 sequence (Q27783 28-238 limits assumed): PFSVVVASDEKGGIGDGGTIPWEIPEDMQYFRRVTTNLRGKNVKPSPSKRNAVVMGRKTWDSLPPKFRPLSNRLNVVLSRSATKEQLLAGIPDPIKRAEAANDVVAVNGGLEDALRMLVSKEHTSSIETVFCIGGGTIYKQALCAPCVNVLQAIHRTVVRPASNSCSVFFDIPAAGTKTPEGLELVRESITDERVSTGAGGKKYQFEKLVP

pIC50 (TbPTR1 [2]): 4.66
Compound: C=CC/C=C\C/C=C\CCCCCCCc1cccc(O)c1C(=O)O [Compound 12]

pEC50 (LmPTR1; read-out: EC50 LmPTR1 (footnote a)): 4.45
pIC50 (TbDHFR): 5.54
pEC50 (LmDHFR): 5.33
pIC50 (hDHFR): < 4.30
pIC50 (TbPTR1 [2]): 4.55
Compound: CCC(C)C(=O)c1c(O)c(C/C=C(\C)CCC=C(C)C)c(O)c2c([C@H](CC)OC(C)=O)cc(=O)oc12 (some centres unmarked) [Compound 20, surangin B]

pIC50 (LmPTR1; read-out: IC50 LmPTR1): < 4.30
pIC50 (TbDHFR): 4.93
pIC50 (TbPTR1 [2]): 4.19
Compound: CC(C)=CCc1c(O)ccc(C(=O)CCc2ccc(O)cc2)c1O [Compound 16]

Further lines, the compound ahead of its results:

Compound: C=C(CO)C(=O)O[C@H]1CC(=C)[C@@H]2C[C@H](O)C(=C)[C@@H]2[C@H]2OC(=O)C(=C)[C@@H]21 [Compound 2, cynaropicrin]
pIC50 (LmPTR1): < 4.30
inhibitory effect against LmPTR1 (LmPTR1): No relevant inhibitory effect
pIC50 (TbDHFR; recombinant enzyme, >50 = <50% inhibition at 50 μM): 5.15
TbPTR1 activity recovered upon 1:2 dilution compared to the reference (TbPTR1 [1]): 6.8%
pIC50 (hDHFR): < 4.30
inhibition of hDHFR (hDHFR): no relevant inhibition

Compound: COc1c(O)cc2c(=O)c3c(O)cc(O)c(CC=C(C)C)c3oc2c1CC=C(C)C [Compound 13]
pIC50 (TbDHFR): 6.22
pIC50 (TbPTR1 [2]): 4.13

Compound: O=c1[nH]c(=O)n([C@@H]2O[C@H](CO)[C@@H](O)[C@H]2O)c2nc(-c3ccc(Cl)cc3)cnc12 [Compound 18]
pIC50 (TbDHFR): < 4.30
pIC50 (TbPTR1 [2]): 4.23

Compound: COc1cc(-c2oc3c(OC)c(O)cc(O)c3c(=O)c2OC)c(OC)c(OC)c1OC [Compound 23, 5,7-dihydroxy-3,3′,4′,5′,6′,8-hexamethoxyflavone]
TbPTR1 activity recovered upon 1:2 dilution compared to the reference (TbPTR1 [1]): about 33%
